Test results from US20240343704A1, “HALO-SUBSTITUTED AMINO PYRIDINE COMPOUNDS AS INHIBITORS OF THE HAEMATOPOIETIC PROGENITOR KINASE 1 (HPK1)” (priority 2021, published 2024).

Assays:
[1] = biological target: T1, Recombinant (1-346) HPK1 (h) (Homo sapiens, UniProt Q92918); assay: HPK1 Human STE Kinase Enzymatic Radiometric Assay; format: biochemical; conditions: read-out: HPK1 IC50 nM Range*
T1 construct: Recombinant (1-346) HPK1 (h) is incubated with 8 mM MOPS pH 7.0
T1 sequence (Q92918 1-346): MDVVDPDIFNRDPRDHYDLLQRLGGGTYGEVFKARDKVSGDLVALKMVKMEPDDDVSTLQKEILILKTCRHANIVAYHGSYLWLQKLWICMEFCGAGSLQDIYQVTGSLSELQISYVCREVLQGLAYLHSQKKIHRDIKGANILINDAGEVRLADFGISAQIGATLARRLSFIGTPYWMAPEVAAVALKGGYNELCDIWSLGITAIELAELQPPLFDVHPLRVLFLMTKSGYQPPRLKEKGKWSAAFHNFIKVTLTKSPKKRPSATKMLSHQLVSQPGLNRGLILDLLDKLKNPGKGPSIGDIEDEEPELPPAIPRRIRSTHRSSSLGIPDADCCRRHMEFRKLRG
Protocol: A stock solution of 10 mM of test compound is prepared in DMSO. The compound plate was prepared by 3-fold and 9-point serial dilutions. […] The reaction is initiated by The addition of the Mg/ATP mix. After incubation for 40 minutes at RT, the reaction is stopped by the addition of phosphoric acid to a concentration of 0.5%.

Lck (h) = Lck (h) (Homo sapiens, UniProt P06239); assay: Lck Human  Kinase Enzymatic Radiometric Assay; format: biochemical; conditions: read-out: Lck IC50 nM Range*
Lck (h), sequence (P06239 whole entry): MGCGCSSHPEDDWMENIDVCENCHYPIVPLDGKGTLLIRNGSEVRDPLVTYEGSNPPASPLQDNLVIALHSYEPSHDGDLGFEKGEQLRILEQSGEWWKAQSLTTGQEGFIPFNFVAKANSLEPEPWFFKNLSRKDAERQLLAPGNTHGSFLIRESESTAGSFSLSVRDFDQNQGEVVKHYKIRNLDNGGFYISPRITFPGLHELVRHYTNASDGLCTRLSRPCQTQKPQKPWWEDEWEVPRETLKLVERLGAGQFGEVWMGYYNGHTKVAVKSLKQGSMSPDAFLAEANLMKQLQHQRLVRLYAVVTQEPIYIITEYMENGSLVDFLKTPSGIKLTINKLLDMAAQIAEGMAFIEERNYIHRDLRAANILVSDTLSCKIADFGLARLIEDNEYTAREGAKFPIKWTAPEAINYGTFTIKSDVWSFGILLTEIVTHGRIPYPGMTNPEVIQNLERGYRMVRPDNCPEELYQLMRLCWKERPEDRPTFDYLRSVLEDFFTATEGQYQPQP
In short: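 Substrate 33P-incorporation measured by scintillation counting after spotting on P30 filtermat and phosphoric acid washes. Human Lck reacted 40 min at RT in 50 mM Tris pH 7.5 with 10 mM MgAcetate, [gamma-33P]-ATP, 250 uM Cdc2 peptide, 0.1 mM EGTA and 0.1 mM Na3VO4.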

IC50 [1] [nM]	IC50 (Lck (h)) [nM]	SMILES
0.1 to 10	> 1000	COc1cc(-c2cc(-c3ccc4c(c3)CCNC4=O)c(N)nc2F)ccc1OC1CCN(C(C)C)CC1 [I-273, 6-(2-amino-6-fluoro-5-(4-((1-isopropylpiperidin-4-yl)oxy)-3-methoxyphenyl)pyridin-3-yl)-3,4-dihydroisoquinolin-1(2H)-one]
0.1 to 10	> 1000	CC(C)N1CCC[C@H](Oc2ccc(-c3cc(-c4ccc5c(c4)CCNC5=O)c(N)nc3F)cc2)C1 [I-274, (S)-6-(2-amino-6-fluoro-5-(4-((1-isopropylpiperidin-3-yl)oxy)phenyl)pyridin-3-yl)-3,4-dihydroisoquinolin-1(2H)-one]
0.1 to 10	> 1000	CN1CCCN(c2ccc(-c3cc(-c4ccc5c(c4)CCNC5=O)c(N)nc3F)cc2)CC1 [I-277, 6-(2-amino-6-fluoro-5-(4-(4-methyl-1,4-diazepan-1-yl)phenyl)pyridin-3-yl)-3,4-dihydroisoquinolin-1(2H)-one]
0.1 to 10	> 1000	CC(C)N1CCN(c2ccc(-c3cc(-c4ccc5c(c4)CCNC5=O)c(N)nc3F)cc2)CC1C (stereo not drawn) [I-278, 6-(2-amino-6-fluoro-5-(4-(4-isopropyl-3-methylpiperazin-1-yl)phenyl)pyridin-3-yl)-3,4-dihydroisoquinolin-1(2H)-one]
0.1 to 10	> 1000	CC(C)N1CCCN(c2ccc(-c3cc(-c4ccc5c(c4)CCNC5=O)c(N)nc3F)cc2)CC1 [I-279, 6-(2-amino-6-fluoro-5-(4-(4-isopropyl-1,4-diazepan-1-yl)phenyl)pyridin-3-yl)-3,4-dihydroisoquinolin-1(2H)-one]
0.1 to 10	> 1000	Nc1nc(F)c(-c2ccc(N3CCN4CCCC4C3)cc2)cc1-c1ccc2c(c1)CCNC2=O (stereo not drawn) [I-280, 6-(2-amino-6-fluoro-5-(4-(hexahydropyrrolo[1,2-a]pyrazin-2(1H)-yl)phenyl)pyridin-3-yl)-3,4-dihydroisoquinolin-1(2H)-one]
0.1 to 10	> 1000	Nc1nc(F)c(-c2ccc(N3CCCN4CCCC4C3)cc2)cc1-c1ccc2c(c1)CCNC2=O (stereo not drawn) [I-281, 6-(2-amino-6-fluoro-5-(4-(hexahydro-1H-pyrrolo[1,2-a][1,4]diazepin-2(3H)-yl)phenyl)pyridin-3-yl)-3,4-dihydroisoquinolin-1(2H)-one]
0.1 to 10	> 1000	C[C@H]1CN(C)CCN1c1ccc(-c2cc(-c3ccc4c(c3)CCNC4=O)c(N)nc2F)cc1 [I-282, (S)-6-(2-amino-5-(4-(2,4-dimethylpiperazin-1-yl)phenyl)-6-fluoropyridin-3-yl)-3,4-dihydroisoquinolin-1(2H)-one]
0.1 to 10	> 1000	CN(C)C1CCN(c2ccc(-c3cc(-c4ccc5c(c4)CCNC5=O)c(N)nc3F)cc2)CC1 [I-283, 6-(2-amino-5-(4-(4-(dimethylamino)piperidin-1-yl)phenyl)-6-fluoropyridin-3-yl)-3,4-dihydroisoquinolin-1(2H)-one]
11 to 100	> 1000	C[C@@H]1CN(c2ccc(-c3cc(-c4ccc5c(c4)CCNC5=O)c(N)nc3F)cc2)C[C@H](C)N1C(=O)OC(C)(C)C [I-284, tert-butyl (2R,6S)-4-(4-(6-amino-2-fluoro-5-(1-oxo-1,2,3,4-tetrahydroisoquinolin-6-yl)pyridin-3-yl)phenyl)-2,6-dimethylpiperazine-1-carboxylate]
11 to 100	> 1000	CNCC1Cc2cc(-c3cc(-c4ccc(N5CCOCC5)cc4)c(F)nc3N)ccc2C(=O)N1 (stereo not drawn) [I-285, 6-(2-amino-6-fluoro-5-(4-morpholinophenyl)pyridin-3-yl)-3-((methylamino)methyl)-3,4-dihydroisoquinolin-1(2H)-one]
0.1 to 10	> 1000	CNCC1Cc2cc(-c3cc(-c4ccc(N5CCN(C(C)C)CC5)cc4)c(F)nc3N)ccc2C(=O)N1 (stereo not drawn) [I-286, 6-(2-amino-6-fluoro-5-(4-(4-isopropylpiperazin-1-yl)phenyl)pyridin-3-yl)-3-((methylamino)methyl)-3,4-dihydroisoquinolin-1(2H)-one]
0.1 to 10	> 1000	CC(C)N1CC(Oc2ccc(-c3cc(-c4ccc5c(c4)CCNC5=O)c(N)nc3F)cc2)C1 [I-288, 6-(2-amino-6-fluoro-5-(4-((1-isopropylazetidin-3-yl)oxy)phenyl)pyridin-3-yl)-3,4-dihydroisoquinolin-1(2H)-one]
0.1 to 10	0.1 to 10	CC(=O)N1CCC(Oc2ccc(-c3cc(-c4ccc5c(c4)CCNC5=O)c(N)nc3F)cc2F)CC1 [I-290, 6-(5-(4-((1-acetylpiperidin-4-yl)oxy)-3-fluorophenyl)-2-amino-6-fluoropyridin-3-yl)-3,4-dihydroisoquinolin-1(2H)-one]

The next lines start with the compound.

SMILES	IC50 [1] [nM]	IC50 (Lck (h)) [nM]
CC(C)N1CCC(Oc2ccc(-c3cc(-c4ccc5c(c4)CCNC5=O)c(N)nc3F)c3c2OCO3)CC1 [I-275, 6-(2-amino-6-fluoro-5-(7-((1-isopropylpiperidin-4-yl)oxy)benzo[d][1,3]dioxol-4-yl)pyridin-3-yl)-3,4-dihydroisoquinolin-1(2H)-one]	0.1 to 10	> 1000
CNCC1Cc2cc(-c3cc(-c4ccc5c(c4)CCNC5=O)c(N)nc3F)ccc2C(=O)N1 (stereo not drawn) [I-276, 6-(6-amino-2-fluoro-5-(1-oxo-1,2,3,4-tetrahydroisoquinolin-6-yl)pyridin-3-yl)-3-((methylamino)methyl)-3,4-dihydroisoquinolin-1(2H)-one]	11 to 100	> 1000
Nc1nc(F)c(-c2ccc3c(c2)CCNC3)cc1-c1cc2c(cc1F)C(=O)NCC2 [I-287, 2,2,2-trifluoroacetate]	0.1 to 10	> 1000
N#Cc1cc(-c2cc(-c3cc4c(cc3F)C(=O)NCC4)c(N)nc2F)ccc1OC1CCNCC1 [I-289, 5-(6-amino-2-fluoro-5-(7-fluoro-1-oxo-1,2,3,4-tetrahydroisoquinolin-6-yl)pyridin-3-yl)-2-(piperidin-4-yloxy)benzonitrile]	11 to 100	> 1000
CC(C)N1CCC(Oc2ccc(-c3cc(-c4cc5c(cc4F)C(=O)NCC5)c(N)nc3F)cc2C#N)CC1 [I-292, 5-(6-amino-2-fluoro-5-(7-fluoro-1-oxo-1,2,3,4-tetrahydroisoquinolin-6-yl)pyridin-3-yl)-2-((1-isopropylpiperidin-4-yl)oxy)benzonitrile]	0.1 to 10	> 1000
N#Cc1cc(-c2cc(-c3cc4c(cc3F)C(=O)NCC4)c(N)nc2F)ccc1OC1CCN(CC(F)(F)F)CC1 [I-293, 5-(6-amino-2-fluoro-5-(7-fluoro-1-oxo-1,2,3,4-tetrahydroisoquinolin-6-yl)pyridin-3-yl)-2-((1-(2,2,2-trifluoroethyl)piperidin-4-yl)oxy)benzonitrile]	11 to 100	> 1000
COC1(c2ccc(-c3cc(-c4ccc5c(c4)CCNC5=O)c(N)nc3F)cc2)CCN(C(C)C)CC1 [I-294, 6-(2-amino-6-fluoro-5-(4-(1-isopropyl-4-methoxypiperidin-4-yl)phenyl)pyridin-3-yl)-3,4-dihydroisoquinolin-1(2H)-one]	0.1 to 10	> 1000
CC(C)N1CC=C(c2ccc(-c3cc(-c4cc5c(cc4F)C(=O)NCC5)c(N)nc3F)cc2)CC1 [I-295, 6-(2-amino-6-fluoro-5-(4-(1-isopropyl-1,2,3,6-tetrahydropyridin-4-yl)phenyl)pyridin-3-yl)-7-fluoro-3,4-dihydroisoquinolin-1(2H)-one]	0.1 to 10	> 1000
CCN1CC=C(c2ccc(-c3cc(-c4cc5c(cc4F)C(=O)NCC5)c(N)nc3F)cc2)CC1 [I-296, 6-(2-amino-5-(4-(1-ethyl-1,2,3,6-tetrahydropyridin-4-yl)phenyl)-6-fluoropyridin-3-yl)-7-fluoro-3,4-dihydroisoquinolin-1(2H)-one]	0.1 to 10	> 1000
Nc1nc(F)c(-c2ccc(C3=CCN(CC4CC4)CC3)cc2)cc1-c1cc2c(cc1F)C(=O)NCC2 [I-297, 6-(2-amino-5-(4-(1-(cyclopropylmethyl)-1,2,3,6-tetrahydropyridin-4-yl)phenyl)-6-fluoropyridin-3-yl)-7-fluoro-3,4-dihydroisoquinolin-1(2H)-one]	0.1 to 10	> 1000
CNCC1Cc2cc(-c3cc(-c4ccc(Cl)cc4)c(F)nc3N)ccc2C(=O)N1 (stereo not drawn) [I-298, 6-(2-amino-5-(4-chlorophenyl)-6-fluoropyridin-3-yl)-3-((methylamino)methyl)-3,4-dihydroisoquinolin-1(2H)-one]	11 to 100	> 1000
CC(C)N1CCc2cc(-c3cc(-c4cc5c(cc4F)C(=O)NCC5)c(N)nc3F)ccc2C1 [I-299, 6-(2-amino-6-fluoro-5-(2-isopropyl-1,2,3,4-tetrahydroisoquinolin-6-yl)pyridin-3-yl)-7-fluoro-3,4-dihydroisoquinolin-1(2H)-one]	0.1 to 10	> 1000
COCCN1CCc2cc(-c3cc(-c4cc5c(cc4F)C(=O)NCC5)c(N)nc3F)ccc2C1 [I-300, 6-(2-amino-6-fluoro-5-(2-(2-methoxyethyl)-1,2,3,4-tetrahydroisoquinolin-6-yl)pyridin-3-yl)-7-fluoro-3,4-dihydroisoquinolin-1(2H)-one]	0.1 to 10	> 1000
